Laboratory results taken from patent US20090275667A1, “USE OF ALLICIN AS PRESERVATIVE, AS DISINFECTANT, AS ANTIMICROBIAL OR AS BIOCIDAL AGENT” (Stone Island Holdings Ltd, priority 2003, published 2009).
≈ marks a conversion by molar mass, not a printed value.

Experiments:
[1] = tested on: protozoal parasite associated with Leishmaniasis; assay: Confirmatory in vitro test against the Leishmaniasis parasite; type: cell-based, Leishmania; details: allicin 5.0 gm per litre
Source text: Confirmatory in vitro tests at the University of East London using allicin at a concentration of 5.0 gm per litre has killed the protozoal parasite associated with Leishmaniasis. Taken with extrapolation of the results from the laboratory studies described in PCT/GB2002/004309, we believe that allicin at a concentration of 5000 ppm has efficacy as an antiprotozoal agent.

Staph. Aureus = assay: Zones of Inhibition against common chicken bacteria; type: cell-based; details: Staphylococcus aureus
[2] = tested on: Paenibacillus larvae subsp. larvae; assay: MIC by broth microdilution, bee pathogens; type: cell-based; details: range 1000 ppm to 0.25 ppm
Source text: (§1) We tested allicia (Allisure™ Liquid) activity against several species of entomopathogenic bacteria (Paenibacillus larvae subsp. larvae, Paenibacillus larvae subsp. pulvifaciens) and fungi (Ascosphaera apis and Ascosphaera aggregata) using broth microdilution method to determine minimum inhibitory concentration (MIC) and the agar diffusion test (Kirby-Bauer) to determine zone of inhibition. Bacterial spores were isolated from the diseased honey bee larval samples. A small aliquot of heat-treated bacterial spores was suspended in 100 μl of phosphate buffered saline-pH 7.2 (PBS) and plated on semi-selective J. Agar medium, containing Nalidixic and Pipemidic acid (Alippi, A M (1995) Detection of Bacillus larvae spores in Argentinian honeys by using a semi-selective medium. Microbiologia 1995 11(3): 343-50; and Govan, V A; Allsopp, M H; Davison, S A (1999) PCR Detection Method for Rapid Identification of Paenibacillus larvae. Applied and Environmental Microbiology 65(5): 2243-2245.
(§2) The plates were incubated at 33° C. in air containing 6% CO2 and 95% RH. The initial species identification was based on morphological, biological and cultural characteristics. The bacterial culture was tested for a catalase reaction (Leboffe, M. J and Pierce, B e (1999) A photographic atlas for the microbiology laboratory. Morton Publishing Company. 254 pp). The bacterial colonies were characterized by shape, margins and color. Gram-positive stained smears (Gram-stain Reagents Kit, EMD Chemicals Inc., NJ) were examined for morphological identification of vegetative cells and spores.
(§3) DNA based PCR identification was performed to corroborate identification of the bacterial species. Bacterial cells from culture plates were added directly to 30 μl of PCR reaction. The PCR primers used in the reaction were based on the 16S RNA sequence to selectively amplify a fragment of 973 by unique to P. larvae (Govan et al., 1999). The PCR products were visualized by 0.8% agarose gel electrophoresis in TAE buffer and ethidium bromide staining. The reference strains of bacteria were used as a control in PCR reactions and were provided by the National Center for Agricultural Research, Peoria, Ill. P. l. larvae (NRRL B-3560, B-2605) and P. l. palvifaciens (NRRL B-3688, B-3685, B-3689, NRS-1687, P. alvei B383).
(§4) Positive controls contained the antibiotic Tylosin (Tylan® 50, Elanco Animal Health Inc., IN) and negative controls contained no antibiotics. […] The optical densities of cultures (OD 600) were recorded 24 h and 48 h post inoculation, depending on the growth rate of the microbial species. […] Minimum bactericidal concentration values (NBC) were determined for allicin by plating out 100 μl of bacterial cultures derived from the MIC assay. […]

[3] = tested on: Paenibacillus larvae subsp. pulvifaciens; assay: MIC by broth microdilution, bee pathogens; type: cell-based; details: range 1000 ppm to 0.25 ppm
Source text: as §1, §2, §3, §4

P. l. larvae = assay: Minimum bactericidal concentration by plating out MIC cultures; type: cell-based, Paenibacillus larvae subsp. larvae; details: range of 1000 ppm to 25 ppm
Method: Positive controls contained the antibiotic Tylosin (Tylan® 50, Elanco Animal Health Inc., IN) and negative controls contained no antibiotics. Bacterial (P. l. larvae, P. l. pulviphaciens) or fungal (A. apis, A. aggregata) spores (100 μl of approximately 10^8-10^9 spores/ml) were added to a 2.5 ml of bacterial or fungal liquid medium containing serial dilutions of allicin. Cultures were incubated in a shaker at 35° C. and 215 rpm. The optical densities of cultures (OD 600) were recorded 24 h and 48 h post inoculation, depending on the growth rate of the microbial species. […] Minimum bactericidal concentration values (NBC) were determined for allicin by plating out 100 μl of bacterial cultures derived from the MIC assay. Plates were incubated 24 h and 48 h at 33° C. and 6% CO2 to observe microbial growth.

[4] = tested on: Escherichia coli (NCTC 8156); assay: Modified Kelsey-Sykes test; type: cell-based; design: key: CG = Confluent growth
Source text: Allicin can be used to displace or supplement existing harmful forms of disinfectant/biocide such as chlorine, sodium hypochlorite, ozone and per-acetic acid all of which can have an adverse effect on the environment. UV radiation is also used for disinfection but power and general running costs are high. Laboratory studies have been conducted on our behalf using allicin on aqueous suspensions of bacterial species commonly used as indicators of the effectiveness of water and wastewater disinfection. To this effect, identified isolates from the faecal coliform and streptococcus groups, namely, Escherichia coli (NCTC 8156) and Enterococcus hirae (University of Brighton isolate) were used in all experiments. An aqueous solution of allicin with a nominal concentration of allicin of 1.8 g per litre ie a 0.18% solution was used.
Stock suspensions of Escherichia coli (NCTC 8156) and Enterococcus hirae (University of Brighton isolate) were cultivated in Nutrient Broth No. 2 from freeze dried isolates. Prior to each experiment, serial dilutions of the suspensions were enumerated by the spread plate method on Nutrient Agar and subsequent incubation at 37 deg C.
Initial experimental procedures were based on the methods set out in an established UK protocol (BS 6905: 1987). The Kelsy-Sykes methodology was developed as a guide to the concentrations of disinfectants which may be recommended for use under “dirty” (wastewater/sewage) conditions. It is therefore a suitable means of establishing the effectiveness of a disinfectant against a wastewater containing particulate and dissolved contaminants in addition to micro-organisms.
Therefore, with regard to wastewater/sewage considerations, the protocol was adapted. Under the revised methodology, a sample was taken from the bacterial suspension/biocide mix after the prescribed contact time and plated out onto solid media so that a colony count could be made (see Tables 1 and 2).

[5] = allicin conc. 0.9 % (w/v), 10 mins
[6] = allicin conc. 0.9 % (w/v), 20 mins
[7] = allicin conc. 0.9 % (w/v), 30 mins
[8] = allicin conc. 1.08 % (w/v), 10 mins
[9] = allicin conc. 1.08 % (w/v), 20 mins
[10] = allicin conc. 1.26 % (w/v), 10 mins
[11] = allicin conc. 1.26 % (w/v), 20 mins
[12] = allicin conc. 1.62 % (w/v), 10 mins
[13] = allicin conc. 1.62 % (w/v), 20 mins

C=CCS[S+]([O-])CC=C (centres unmarked) [allicin, Allicin]
killing of the protozoal parasite [1]: killed | zone of inhibition at 166 ppm (Staph. Aureus; 166 ppm (1:6 dilution)): 0 mm | zone of inhibition at 1000 ppm (Staph. Aureus; 1000 ppm): 32 mm | MIC [2]: 350 µg/mL (≈ 2160 µM) | MIC [3]: 350 µg/mL (≈ 2160 µM) | bacteriostatic or bactericidal activity (P. l. larvae): only bacteriostatic (no bactericidal) activity | Numbers of colony forming units killed [4, 5]: CG | Percentage reduction in colony forming units [4, 5]: CG | Numbers of colony forming units killed [4, 6]: CG | Percentage reduction in colony forming units [4, 6]: CG | Numbers of colony forming units killed [4, 7]: CG | Percentage reduction in colony forming units [4, 7]: CG | Numbers of colony forming units killed [4, 8]: CG | Percentage reduction in colony forming units [4, 8]: CG | Numbers of colony forming units killed [4, 9]: CG | Percentage reduction in colony forming units [4, 9]: CG | Percentage reduction in colony forming units ([4]; allicin conc. 1.08 % (w/v), 30 mins): 94% | Numbers of colony forming units killed [4, 10]: CG | Percentage reduction in colony forming units [4, 10]: CG | Numbers of colony forming units killed [4, 11]: CG | Percentage reduction in colony forming units [4, 11]: CG | Percentage reduction in colony forming units ([4]; allicin conc. 1.26 % (w/v), 30 mins): 97% | Percentage reduction in colony forming units ([4]; allicin conc. 1.4 % (w/v), 10 mins): CG | Percentage reduction in colony forming units ([4]; allicin conc. 1.4 % (w/v), 20 mins): CG | Percentage reduction in colony forming units ([4]; allicin conc. 1.4 % (w/v), 30 mins): 89% | Numbers of colony forming units killed ([4]; allicin conc. 1.44 % (w/v), 10 mins): CG | Numbers of colony forming units killed ([4]; allicin conc. 1.44 % (w/v), 20 mins): CG | Numbers of colony forming units killed [4, 12]: CG | Percentage reduction in colony forming units [4, 12]: CG | Numbers of colony forming units killed [4, 13]: CG | Percentage reduction in colony forming units [4, 13]: CG | Percentage reduction in colony forming units ([4]; allicin conc. 1.62 % (w/v), 30 mins): 83%
